The subject of series [1] is aminopeptidase and disulphidase. Particulars: cited from earlier work.
For series [2] the following is noted: cited from earlier work.
The target in series [3] is T1, human oxytocin receptor (hOXTR) (Homo sapiens, UniProt P30559). The note with it: carbetocin vs oxytocin.
The target in series [4] is T1, human oxytocin receptor (hOXTR). As to the kind of experiment: cell-based. The note with it: HEK293, read-out: maximal activation (BRETmax) relative to oxytocin.
Details of series [5]: method as in PMID 6831225. Particulars: parenteral administration; cited from earlier work.
On the set-up of series [6]: method as in PMID 6831225. The note with it: cited from earlier work.
Series [7] relates to human vasopressin V1a receptor (V1aR). The series is described as follows: BRET2 G-protein activation at V1aR in HEK293 cells. It is filed as cell-based. Particulars: 10 μM ligand, 2 min, Gq, Gi1, Gi2, Gi3, Go, minimum of three experiments. The source says:
(A) V1aR or (B) V1bR were transfected together with GFP10‐Gγ2, Gβ1 and different Rluc8‐tagged Gα subunits: Gq, Gi1, Gi2, Gi3, Go.

In series [8] the test system is human vasopressin V1b receptor (V1bR). The series is described as follows: BRET2 G-protein activation at V1bR in HEK293 cells. The note with it: 10 μM ligand, 2 min, Gq, Gi1, Gi2, Gi3, Go, minimum of three experiments.
The subject of another series is OXTR. Particulars: cited from earlier work.
In series [9] the target is T1, human oxytocin receptor (hOXTR).
Series [10] concerns somatostatin receptor (SST2R). Also noted: method as in PMID 25012983. Particulars: functioning gastroenteropancreatic neuroendocrine tumours; cited from earlier work.
In series [11] the target is T2, human oxytocin receptor fused to Renilla luciferase (hOXTR‐Rluc) (human, UniProt P30559 1-389).
T2 construct: oxytocin receptor, human; Rluc introduced at the C-terminus; source: HEK293, transfected (PEI), in living cells; not shown: Rluc (Renilla luciferase), C-terminal, kept
T2 sequence (looked up): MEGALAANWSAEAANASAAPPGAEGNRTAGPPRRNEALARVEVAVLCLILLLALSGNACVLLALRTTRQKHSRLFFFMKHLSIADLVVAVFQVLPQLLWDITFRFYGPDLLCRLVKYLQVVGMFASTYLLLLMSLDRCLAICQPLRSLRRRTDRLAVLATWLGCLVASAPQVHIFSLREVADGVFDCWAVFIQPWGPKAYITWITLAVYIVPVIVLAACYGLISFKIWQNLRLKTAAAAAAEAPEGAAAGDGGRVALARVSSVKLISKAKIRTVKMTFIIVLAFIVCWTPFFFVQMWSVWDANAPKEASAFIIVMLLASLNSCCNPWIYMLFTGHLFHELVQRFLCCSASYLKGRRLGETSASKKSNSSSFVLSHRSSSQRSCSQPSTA
The series is described as follows: FRET or BRET; kinetic BRET1 in HEK293 cells co-transfected with hOXTR-Rluc (donor) and β-arrestin1- or β-arrestin2-Venus (acceptor); cells in PBS with 0.1% glucose at room temperature; coelenterazine h added 8 min before oxytocin (10 μM); read in real time for 5 min. The note with it: partners not purified. A general note: In BRET a luciferase serves as donor, and the signal depends on an acceptor being close.

*1 amine or outer side, *2 acyl side, *3 side chain or, on linkers, in order; H or OH if unused. Where a SMILES comes first, the peptide text is derived from it. Bridges are numbered along the chain shown (N, C = ends). Where no end group is shown, it is not given here. X1 = O=C(CCC[*:2])[*:1]

Turning to `CC[C@H](C)[C@@H]1NC(=O)[C@H](Cc2ccc(OC)cc2)NC(=O)CCCSC[C@@H](C(=O)N2CCC[C@H]2C(=O)N[C@@H](CC(C)C)C(=O)NCC(N)=O)NC(=O)[C@H](CC(N)=O)NC(=O)[C@H](CCC(N)=O)NC1=O` [carbetocin, deamino‐1‐monocarba‐(2‐O‐methyltyrosine)‐oxytocin] (Y(Me)IQNCPLG-NH2; linker N-5 via X1), the “protection from aminopeptidase degradation and disulphidase cleavage” value in series [1] is “very effective protection of carbetocin from aminopeptidase degradation and disulphidase cleavage”. Further, the “half-life in the peripheral circulation” value in series [2] was 85 to 100 min. Also, the “reduction in maximal OXTR/Gq activation compared to oxytocin” value in [3] turned out to be 50%. The Emax in series [4] came to 45 ± 6%.
On to `CC[C@H](C)[C@@H]1NC(=O)[C@H](Cc2ccc(O)cc2)NC(=O)[C@@H](N)CSSC[C@@H](C(=O)N2CCC[C@H]2C(=O)N[C@@H](CC(C)C)C(=O)NCC(N)=O)NC(=O)[C@H](CC(N)=O)NC(=O)[C@H](CCC(N)=O)NC1=O` [oxytocin], for which, in series [5], the blood-brain barrier crossing entry is on record as “does not cross the blood–brain barrier in a significant amount”. In addition, the “half-life in the cerebrospinal fluid” value in series [6] is recorded as “short half‐life”. For the same molecule, in series [2], the “half-life in the peripheral circulation” value is recorded as 3.4 min and the “half-life in the plasma” value is recorded as “short half‐life in the plasma”.
As for “arginine vasopressin: neuropeptide arginine vasopressin, obtained from Bachem (CYFQNCPRG; not fully specified (C-terminus, bridges); cysteine pairing not given here; UniProt P01185 20-28, looked up)”, in series [7], the “V1aR activation, all G-proteins tested” value is “significantly promoted the coupling/activation”. The “V1bR activation, all G-proteins tested” value in series [8] is on record as “significantly promoted the coupling/activation”.
Consider atosiban, for which the G-protein functional selectivity entry in the series with OXTR was “a Gi3 functional selective agonists”.
In [9], “carbetocin (deamino‐1‐monocarba‐(2‐O‐methyltyrosine)‐oxytocin) (peptide)” gave an EC50 of Gq activation (BRET2 between Gαq-Rluc8 and GFP10-Gγ2) in HEK293 cells expressing hOXTR, 10^-13 to 10^-5 M, 2 min of 48.8 nM; a maximal activation (BRETmax) of the Gq biosensor in HEK293 cells expressing hOXTR, against that of oxytocin (% of oxytocin) of 45.
As for octreotide, in series [10], the “antisecretory potency on long-term treatment” value was “antisecretory potency decreased with long‐term treatment as a consequence of the persistent internalisation of SST2R”.

B1: β‐arrestin1‐Venus (natural protein, UniProt P49407 1-418, looked up)
chain: MGDKGTRVFKKASPNGKLTVYLGKRDFVDHIDLVDPVDGVVLVDPEYLKERRVYVTLTCAFRYGREDLDVLGLTFRKDLFVANVQSFPPAPEDKKPLTRLQERLIKKLGEHAYPFTFEIPPNLPCSVTLQPGPEDTGKACGVDYEVKAFCAENLEEKIHKRNSVRLVIRKVQYAPERPGPQPTAETTRQFLMSDKPLHLEASLDKEIYYHGEPISVNVHVTNNTNKTVKKIKISVRQYADICLFNTAQYKCPVAMEEADDTVAPSSTFCKVYTLTPFLANNREKRGLALDGKLKHEDTNLASSTLLREGANREILGIIVSYKVKVKLVVSRGGLLGDLASSDVAVELPFTLMHPKPKEEPPHREVPENETPVDTNLIELDTNDDDIVFEDFARQRLKGMKDDKEEEEDGTGSPQLNNR
notes: β-arrestin1; Venus (yellow variant of GFP) fused to its C-terminus; vector provided by Professor M. Locati; source: HEK293, transfected (PEI), in living cells; not shown: Venus, C-terminal, kept
As to B1, the “t1/2 of the oxytocin-induced increase of the BRET ratio” value in series [11] worked out at 119 s.
